Some test systems named below: UACC-62 melanoma; NCI-H522 lung; DU-145 prostate; IGROV1 ovarian; SN12C renal; SF-295 CNS; OVCAR-8 ovarian; TK-10 renal; COLO 205 colon; HOP-92 NSCLC.
Common to all, as to assay: growth of human tumour cells (NCI), 48 h

SMILES strings stand for the structures.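 1) Cells in 96-well plates. 2) Compound, 48 h, 5 concentrations. 3) Linear interpolation between surrounding doses. 4) Unreached endpoint = highest concentration. Here, GI50 denotes the concentration required for 50% inhibition of growth. Definition used: TGI = concentration required for complete inhibition of growth.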

Consider 8 molecules from PubChem BioAssay (NCI).

For `COc1cc(OC)cc(-c2n/c(=C\c3c(O)[nH]c4ccc(OC)cc34)cc3c2=Nc2ccccc2-3)c1`, the GI50 in the test on UACC-62 melanoma is 18.3 µM; in the test with NCI-H522 lung it was 17.8 µM; in the test on DU-145 prostate, 3.49 µM; in the test on IGROV1 ovarian, 25.2 µM; in the test with SN12C renal, more than 100 µM; in the test with SF-295 CNS it was 14.4 µM. For the same molecule, the GI50 is 12.1 µM in the test on OVCAR-8 ovarian and 3.82 µM in the test on TK-10 renal. In addition, the TGI in the test with UACC-62 melanoma is 36 µM; in the test on NCI-H522 lung it was 37.2 µM; with DU-145 prostate it was 10.7 µM; in the test with IGROV1 ovarian, 68.4 µM; in the test with SN12C renal, more than 100 µM; in the test with SF-295 CNS it was 34 µM. Moreover, the TGI was found to be 32.4 µM in the test with OVCAR-8 ovarian and 9.86 µM in the test on TK-10 renal.

Take `NC(CCOCCP(=O)(O)O)C(=O)O` (stereo not drawn): the TGI in the test with UACC-62 melanoma, with NCI-H522 lung, in the test with COLO 205 colon, with DU-145 prostate, in the test with IGROV1 ovarian and in the test with SN12C renal was more than 100 µM in each case. Besides, the TGI in the test with SF-295 CNS, with HOP-92 NSCLC, in the test on OVCAR-8 ovarian and in the test with TK-10 renal was more than 100 µM throughout.

For `COc1c2c(c3ccccc3c1O)C1C=CC2C1` (stereo not drawn), the TGI in the test on UACC-62 melanoma was determined as 30.4 µM; in the test on NCI-H522 lung it was 29.3 µM; in the test on COLO 205 colon, 30.1 µM; in the test on IGROV1 ovarian, 39 µM; with SN12C renal it was 28.5 µM; with OVCAR-8 ovarian, 28.7 µM. In addition, the TGI in the test on TK-10 renal was 36.8 µM.

`O=C(N/N=C\c1ccc(N(CCCl)CCCl)cc1[N+](=O)[O-])c1cccnc1`: the GI50 in the test with UACC-62 melanoma is more than 100 µM; with NCI-H522 lung it was more than 100 µM; in the test on COLO 205 colon, more than 100000 nM; with DU-145 prostate, more than 100 µM; with IGROV1 ovarian, more than 100 µM; in the test on SN12C renal, more than 100 µM. Moreover, the GI50 in the test on SF-295 CNS is more than 100 µM; in the test with HOP-92 NSCLC, more than 100000 nM; in the test with OVCAR-8 ovarian, more than 100 µM; in the test on TK-10 renal, more than 100 µM. Further, the TGI with UACC-62 melanoma, in the test on NCI-H522 lung, with COLO 205 colon, in the test on DU-145 prostate, with IGROV1 ovarian and in the test on SN12C renal was more than 100 µM each time. The TGI in the test with SF-295 CNS, in the test with HOP-92 NSCLC, in the test on OVCAR-8 ovarian and in the test on TK-10 renal was more than 100 µM each time.

On to `CCN(CC)CCN1C(=O)c2c(c3c4ccccc4[nH]c3c3ccc4ccccc4c23)C1=O`, for which the GI50 was 1.57 µM in the test on UACC-62 melanoma; 1.46 µM with NCI-H522 lung; 2560 nM with COLO 205 colon; 1.65 µM in the test on DU-145 prostate; 1.43 µM in the test on IGROV1 ovarian; 1.71 µM with SN12C renal. In addition, the GI50 is 0.722 µM in the test with SF-295 CNS, 1420 nM in the test on HOP-92 NSCLC, 1.78 µM in the test on OVCAR-8 ovarian and 1.77 µM in the test on TK-10 renal. For the same molecule, the TGI with UACC-62 melanoma stood at 2.97 µM; in the test on NCI-H522 lung it was 3.54 µM; in the test on COLO 205 colon it was 10.8 µM; in the test with DU-145 prostate, 3.06 µM; with IGROV1 ovarian, 2.83 µM; with SN12C renal it was 3.22 µM. The TGI in the test on SF-295 CNS came to 2.03 µM; in the test with HOP-92 NSCLC it was 2.95 µM; with OVCAR-8 ovarian it was 4.74 µM; in the test on TK-10 renal it was 3.34 µM.

On to `COC1=CC(=O)CC(C)C12Oc1c(Cl)c(OC)cc(OC)c1C2=O` (stereo not drawn), for which the TGI in the test with UACC-62 melanoma was more than 100 µM; in the test with NCI-H522 lung it was 23.1 µM; in the test with COLO 205 colon, 64 µM; in the test on DU-145 prostate, more than 100 µM; in the test with IGROV1 ovarian it was more than 100 µM; with SN12C renal, more than 100 µM. Besides, the TGI with SF-295 CNS was 57.3 µM; in the test with HOP-92 NSCLC, 98.3 µM; with OVCAR-8 ovarian, more than 100 µM; with TK-10 renal it was more than 100 µM.

On to `C=C1C(=O)O[C@@H]2[C@H](O)[C@@H](C)[C@@H]3C=CC(=O)[C@@]3(C)[C@@H](OC(=O)/C(C)=C/C)[C@H]12`, for which the TGI with UACC-62 melanoma turned out to be 1.11 µM; in the test with NCI-H522 lung, 0.258 µM; in the test on COLO 205 colon, 1.11 µM; in the test on IGROV1 ovarian, 2.02 µM; in the test with SN12C renal it was 2.52 µM; in the test with SF-295 CNS it was 8.34 µM. In addition, the values for the TGI in the test on HOP-92 NSCLC and in the test with OVCAR-8 ovarian were 1.78 µM and 2.72 µM, respectively.

As to `Cc1ccc(C2=C(C#N)C(N)OC3=C2COc2ccccc23)cc1` (stereo not drawn), the TGI with UACC-62 melanoma is more than 100 µM; in the test with COLO 205 colon, more than 100 µM; in the test on DU-145 prostate, 69.1 µM; in the test with IGROV1 ovarian it was more than 100 µM; in the test on SN12C renal it was 74.4 µM; with HOP-92 NSCLC, more than 100 µM. This molecule also showed a TGI in the test on TK-10 renal of 44.4 µM.
